How the values were obtained:
DA uptake = assay: Striatal uptake of tritiated dopamine (3H-DA) in striatal homogenates; assay type: in vivo, mouse; details: 3 minutes
Description: Whole striatal homogenates were exposed to [^3H] DA for 3 minutes in the presence or absence of mazindol to examine the influence of sialidase treatment on DA uptake.
In mouse studies as depicted in FIG. 4, striatal uptake of tritiated dopamine (^3H-DA) was examined. […] Striatal homogenates were incubated with ^3H-DA in the presence (non-specific) or absence (total) of the DA uptake inhibitor mazindol (Maz).

[1] = cited from earlier work
DAergic hES cells = assay: Rescue of DAergic hES cells from MPP+ toxicity (TH immunopositive cell count); assay type: cell-based, human
Description: Human stem cells were differentiated into a dopaminergic (DAergic) phenotype using a well characterized method (Iacovitti et al. 2007 as modified in Cai et al., 2013).
hES cells were plated onto 24 well plates. Cells were pretreated with sialidase, GM1 or standard media for 2 hrs and were then exposed to the mitochondrial toxin MPP^+. Twenty-four hours later, media containing toxin was removed and fresh media containing the appropriate concentration of rescue agent was added. Two days later, cells were fixed, processed for tyrosine hydroxylase (TH) immunocytochemistry and the number of TH immunopositive cells were counted.
FIGS. 3A and 3B depict the protection/rescue of human embryonic stem cells from MPP^+ toxicity. A) The number of tyrosine hydroxylase immunopositive (TH^+) cells was reduced as a result of MPP^+ treatment.
Accordingly, the examples and studies identify that human embryonic stem (hES) cells, when differentiated into dopaminergic neurons, are susceptible to MPP^+ toxicity. However, there are mechanisms that exist that can mitigate the effects of MPP^+ toxicity. Indeed, MPP^+ toxicity in hES cells is mitigated by both GM1 and 0.005 U/mL VCS. Therefore, treatment with a sialidase, such as sialidase Neu3 that increases the amounts of GM1 expression in the striatum and the substantia nigra will provide neuroprotective effects.

YAC128 mice = details: cited from earlier work
PD patients = assay: Randomized, controlled, delayed start clinical study of GM1 in PD patients; assay type: in vivo, human
Description: The more highly expressed gangliosides in the brain are GM1, GD1a, GD1b, GT1b, and GD3. […] Although GM1 administration has promise as a treatment for PD, it is difficult to source, is currently available only as a natural product extracted and purified from animal brains, and has low ability to cross the blood brain barrier.
The mean (±SE) change from baseline in Early-start (randomized to receive GM1 at start of study) and Delayed-start (randomized to receive placebo at start of study) study subjects and in a standard-of-care comparison group (no interventions). The dashed vertical line at week 24 indicates the end of study Phase I. After that, all subjects received GM1. The dashed vertical line at week 120 indicates the end of study Phase II. The horizontal dashed line indicates baseline level. An increase of score indicates symptom worsening; a decrease in score indicates symptom improvement. *=p<0.0001 Early-start vs. Delayed-start; ^=p<0.05 Early-start vs. Delayed-start

[2] = hES cells differentiated to dopaminergic phenotype

Row | Compound | total DA uptake (3H-DA) (DA uptake) | oral bioavailability [1] | bioavailability/penetrance across the blood brain barrier ([1]; systemically administered) | number of tyrosine hydroxylase immunopositive (TH+) cells (DAergic hES cells; 5 and 10 μM doses of MPP+, pretreated 2 hrs) | protection/rescue from MPP+ toxicity (TH+ cells) (DAergic hES cells; [2]) | striatal dopamine levels (YAC128 mice; HD models, intracranial administration) | mHtt phosphorylation (YAC128 mice; YAC128 mice, infusion pump) | time to normalization of motor function from start of treatment (YAC128 mice; infusion pump, YAC128 mice symptomatic for motor impairment) [weeks] | change from baseline in score, early effect (PD patients; Early-start vs Delayed-start, Phase I to week 24) | change from baseline in score, later effect (PD patients; Phase II to week 120) | clinical benefit and symptom progression (PD patients; extended GM1 use up to 120 weeks) | improving motor symptoms vs placebo (PD patients; first 24 weeks of the study) | protection/rescue from MPP+ toxicity (TH+ cells) (DAergic hES cells; 0.005 U/mL VCS)
1 | OC1(c2ccc(Cl)cc2)c2ccccc2C2=NCCN21 (centres unmarked) [Mazindol, mazindol] | effectively blocked | – | – | – | – | – | – | – | – | – | – | – | –
2 | GM1 | – | no oral bioavailability | low | prevented cell loss | mitigated | normalization | phosphorylation of mHtt at serine residues 13 and 16 | ≤ 2 | early symptomatic effect | later disease modifying effect | sustained clinical benefit and lower than expected symptom progression | superior to placebo | –
3 | VCS: Sialidase V purified from Vibrio cholerae; cleaves a2-8 linkages and terminal a2-3 linkages | – | – | – | – | protect/rescue cells from MPP^+ toxicity | – | – | – | – | – | – | – | mitigated

Reference: patent US10874749B2, “Gene therapies for neurodegenerative disorders targeting ganglioside biosynthetic pathways” (priority 2015, dated 2020)
